Where two headings read alike, the source gives them in different places.
How the values were obtained:
[1] = system: clonidine-induced aggressive behavior; experiment: Effect on Clonidine-Induced Aggressive Behavior (number of biting attacks during 30 minutes); format: in vivo, male ddY mice; settings: po; for Number of the Biting Attacks (mean ± S.E.M.), Test Compound-Treated Group: 60 min before clonidine 20 mg/kg ip, 30 min count; for response vs control in vivo at 0.63 mg/kg / response vs control in vivo at 2.5 mg/kg / response vs control in vivo at 10 mg/kg: Mus musculus, read-out: Number of the Attacks of Test Compound-Treated Group/Number of the Attacks of Control Group
Method: The effect of a test compound on the aggressive behavior induced by intraperitoneal administration of clonidine was investigated. […] The experiment was performed by using several groups of male ddY mice (weighing 20 to 25 g, Japan SLC), each group consisting of two mice. The test compound was suspended in injectable distilled water (Otsuka Pharmaceutical Co., Ltd.) containing Tween 80 [polyoxyethylene (20) sorbitan monooleate]. Clonidine hydrochloride (Sigma Co.) was dissolved in physiological saline solution (Otsuka Pharmaceutical Co., Ltd.). The test compound suspension and the control suspension were orally administered to separate groups of the mice (0.1 ml per 10 g of body weight). Sixty minutes after the oral administration of the test compound, clonidine hydrochloride (20 mg/kg) was intraperitoneally injected. The number of biting attacks during 30 minutes after clonidine treatment was counted. The effect of the compound was evaluated by comparing the average number of biting attacks of the test compound-administered groups with that of control groups (Statistical comparison: Student's t-test).

ddY-strain male mice = experiment: Acute Toxicity Test (minimum lethal dose, oral); format: in vivo; settings: seven days after administration
Method: Test compounds were orally administered to groups of ddY-strain male mice weighing 20±1 g, each group consisting of three mice. Seven days after the administration, minimum lethal dose (MLD) of each compound was determined by observing the mortality.

| Structure (SMILES) | Number of the Biting Attacks (mean ± S.E.M.), Test Compound-Treated Group ([1]; 0.63 mg/kg) | Number of the Biting Attacks (mean ± S.E.M.), Test Compound-Treated Group ([1]; 2.5 mg/kg) | Number of the Biting Attacks (mean ± S.E.M.), Test Compound-Treated Group ([1]; 10 mg/kg) | response vs control in vivo at 0.63 mg/kg ([1]; 0.63 mg/kg) [%] | response vs control in vivo at 2.5 mg/kg ([1]; 2.5 mg/kg) [%] | MLD (minimum lethal dose) (ddY-strain male mice) [mg/kg] | response vs control in vivo at 10 mg/kg ([1]; 10 mg/kg) [%] | response vs control in vivo at 2.5 mg/kg [1] [%] |
| --- | --- | --- | --- | --- | --- | --- | --- | --- |
| CCn1c(=O)c2c(nc(/C=C/c3ccc(OC)c(OC)c3)n2C)n(CC)c1=O [Compound 74, (E)-8-(3,4-Dimethoxystyryl)-1,3-diethyl-7-methylxanthine] | 23.2 ± 5.19 | 51.3 ± 8.70 | 73.3 ± 8.75 | 380 | 840 | > 300 | – | – |
| CCn1c(=O)c2c(nc(/C=C/c3ccc(OC)cc3OC)n2C)n(CC)c1=O [Compound 78, (E)-8-(2,4-Dimethoxystyryl)-1,3-diethyl-7-methylxanthine] | – | – | 32.1 ± 7.31 | – | – | > 300 | 610 | – |
| CCn1c(=O)c2c(nc(/C=C/c3ccc(OC)c(OC)c3OC)n2C)n(CC)c1=O [Compound 80, (E)-1,3-Diethyl-7-methyl-8-(2,3,4-trimethoxystyryl)xanthine] | 30.3 ± 7.00 | 59.3 ± 12.37 | 67.5 ± 9.35 | 470 | – | > 300 | – | – |
| CCn1c(=O)c2c(nc(/C=C/c3ccc(OC)c(C)c3C)n2C)n(CC)c1=O [Compound 82, (E)-1,3-Diethyl-8-(4-methoxy-2,3-dimethylstyryl)-7-methylxanthine] | – | 59.0 ± 13.31 | 61.8 ± 11.89 | – | – | > 300 | 800 | 910 |
| CCn1c(=O)c2c(nc(/C=C/c3ccc(OC)c(Br)c3)n2C)n(CC)c1=O [Compound 114, (E)-8-(3-Bromo-4-methoxystyryl)-1,3-diethyl-7-methylxanthine] | – | – | 37.8 ± 8.66 | – | – | > 100 | – | – |
| CCOc1ccc(/C=C/c2nc3c(c(=O)n(CC)c(=O)n3CC)n2C)cc1 [Compound 124, (E)-8-(4-Ethoxystyryl)-1,3-diethyl-7-methylxanthine] | – | 85.8 ± 12.41 | 50.5 ± 17.7 | – | – | > 300 | – | – |
| CCCOc1ccc(/C=C/c2nc3c(c(=O)n(CC)c(=O)n3CC)n2C)cc1 [Compound 126, (E)-1,3-Diethyl-7-methyl-8-(4-propoxystyryl)xanthine] | – | – | 80.0 ± 13.93 | – | – | > 300 | – | – |
| CCn1c(=O)c2c(nc(/C=C/c3cc(OC)cc(OC)c3)n2C)n(CC)c1=O [Compound 130, (E)-8-(3,5-Dimethoxystyryl)-1,3-diethyl-7-methyl-xanthine] | – | – | 52.2 ± 11.79 | – | – | > 300 | 480 | – |
| CCCCOc1ccc(/C=C/c2nc3c(c(=O)n(CC)c(=O)n3CC)n2C)cc1 [Compound 148, (E)-8-(4-Butoxystyryl)-1,3-diethyl-7-methylxanthine] | – | – | 46.3 ± 9.40 | – | – | > 100 | – | – |
| CCn1c(=O)c2c(nc(/C=C/c3ccc(F)cc3)n2C)n(CC)c1=O [Compound 150, (E)-1,3-Diethyl-8-(4-fluorostyryl)-7-methylxanthine] | – | – | 42.1 ± 10.18 | – | – | > 100 | – | – |
| CCn1c(=O)c2c(nc(/C=C/c3ccc(C)cc3)n2C)n(CC)c1=O [Compound 152, (E)-1,3-Diethyl-7-methyl-8-(4-methylstyryl)xanthine] | – | – | 82.6 ± 23.07 | – | – | > 100 | 670 | – |
| CCn1c(=O)c2c(nc(/C=C/c3cccc(Br)c3)n2C)n(CC)c1=O [Compound 162, (E)-8-(3-Bromostyryl)-1,3-diethyl-7-methylxanthine] | – | – | 17.9 ± 6.67 | – | – | > 100 | 850 | – |
| CCn1c(=O)c2c(nc(/C=C/c3ccccc3F)n2C)n(CC)c1=O [Compound 168, (E)-1,3-Diethyl-8-(2-fluorostyryl)-7-methylxanthine] | – | – | 53.9 ± 8.59 | – | – | > 100 | 710 | – |
| CCn1c(=O)c2c(nc(/C=C/c3ccc(OC)c(F)c3)n2C)n(CC)c1=O [Compound 173, (E)-1,3-Diethyl-8-(3-fluoro-4-methoxystyryl)-7-methylxanthine] | – | – | 46.8 ± 14.89 | – | – | > 100 | 620 | – |
| CCn1c(=O)c2c(nc(/C=C/c3ccc(OC)c(C)c3)n2C)n(CC)c1=O [Compound 175, (E) -1,3-Diethyl-8-(4-methoxy-3-methylstyryl)-7-methylxanthine] | – | – | 49.1 ± 15.59 | – | – | > 100 | 790 | – |
| CCn1c(=O)c2c(nc(/C=C/c3cc(OC)c4c(c3)OCO4)n2C)n(CC)c1=O [Compound 179, (E)-1,3-Diethyl-8-(3-methoxy-4,5-methylenedioxystyryl)7-methylxanthine] | – | – | 67.7 ± 16.08 | – | – | > 100 | – | – |
| CCn1c(=O)c2c(nc(/C=C/c3cccc(F)c3C)n2C)n(CC)c1=O [Compound 181, (E)-1,3-Diethyl-8-(3-fluoro-2-methylstyryl)-7-methylxanthine] | – | – | 49.5 ± 9.09 | – | – | > 100 | 800 | – |
| CCn1c(=O)c2c(nc(/C=C/c3ccc(O)cc3)n2C)n(CC)c1=O [Compound 184, (E)-1,3-Diethyl-8-(4-hydroxystyryl)-7-methylxanthine] | – | – | 77.1 ± 11.47 | – | – | > 100 | – | – |
| CCn1c(=O)c2c(nc(/C=C/c3ccc(OCc4ccccc4)cc3)n2C)n(CC)c1=O [Compound 185, (E)-8-(4-Benzyloxystyryl)-1,3-diethyl-7-methylxanthine] | – | – | 46.9 ± 14.00 | – | – | > 100 | 620 | – |

From patent US5543415A, “Antidepressants” (Kyowa Hakko Kogyo Co., Ltd., priority 1992, dated 1996)
